Data on 68 compounds can be found in patent US20040259875A1, “Amine derivatives” (priority 2001, published 2004).

Each structure is given as a SMILES string.

Consider `O=C(NCc1ccc(Br)cc1)Nc1cccc2ccc([O-])c(F)c12.[K+]`, for which the melting point came to 185 °C.

In the case of `O=C(Nc1ccc2c(c1)C(=O)c1ccccc1-2)Nc1c(Cl)cc(Cl)c2ccc([O-])cc12.[K+]`, the melting point is 200 °C.

`O=C(Nc1cccc2c1C(=O)c1ccccc1-2)Nc1c(Cl)cc(Cl)c2ccc([O-])cc12.[K+]` registered a melting point of 195 °C.

Consider `Cc1cc(NC(=O)Nc2c(Cl)cc(Cl)c3ccc([O-])cc23)ccc1Cl.[K+]`, for which the melting point was determined as 190 °C.

`O=C(Nc1ccc(N2CCOCC2)c(Cl)c1)Nc1c(Cl)cc(Cl)c2ccc([O-])cc12.[K+]`: the melting point is 188 °C.

For the compound `O=C(Nc1ccc(Cl)c(C(F)(F)F)c1)Nc1c(Cl)cc(Cl)c2ccc([O-])cc12.[K+]`, the melting point was 150 °C (dec.).

On to `O=C(Nc1ccc(C(F)(F)F)cc1)Nc1c(Cl)cc(Cl)c2ccc([O-])cc12.[K+]`, for which the melting point is 179 °C (dec.).

Take `COc1cccc(-c2cccc(NC(=O)Nc3c(Cl)cc(Cl)c4ccc([O-])cc34)c2)c1.[K+]`: the melting point was 206 °C (dec.).

For the compound `O=C(Nc1cccc(-c2ccc(Cl)c(F)c2)c1)Nc1c(Cl)cc(Cl)c2ccc([O-])cc12.[K+]`, the melting point was 174 °C (dec.).

Turning to `O=C(Nc1cccc(Cl)c1)Nc1c(Cl)cc(Cl)c2ccc(O)cc12` [Example 1-1, N-(3-Chlorophenyl)-N′-(2,4-dichloro-7-hydroxy-1-naphthyl)urea], the melting point is more than 260 °C.

With `O=C(Nc1cccc(Cl)c1)Nc1c(Cl)ccc2ccc(O)cc12` [Example 1-2], the melting point is 242 to 243 °C.

As to `O=C(Nc1cccc(Cl)c1)Nc1c(Br)cc(Br)c2ccc(O)cc12` [Example 1-3], the melting point lay in the range of 242 to 243 °C.

`O=C(Nc1ccc(Cl)c(C(F)(F)F)c1)Nc1c(Br)cc(Br)c2ccc(O)cc12` [Example 1-4] registered a melting point of 242 to 243 °C.

As for `O=C(NCc1ccc(Br)cc1)Nc1c(Cl)ccc2ccc(O)cc12` [Example 1-6], the melting point was 226 to 229 °C.

Consider `O=C(Nc1ccc(Cl)c(C(F)(F)F)c1)Nc1c(Cl)ccc2ccc(O)cc12` [Example 1-8], for which the melting point was 260 °C (dec.).

Turning to `O=C(Nc1ccc(Cl)c(C(F)(F)F)c1)Nc1c(Cl)cc(Cl)c2ccc(O)cc12` [Example 1-9], the melting point was 255 °C (dec.).

In the case of `COc1cccc(NC(=O)Nc2c(Cl)cc(Cl)c3ccc(O)cc23)c1` [Example 1-11], the melting point was in the range of 223 to 226 °C.

As for `CCOC(=O)c1cccc(NC(=O)Nc2c(Cl)cc(Cl)c3ccc(O)cc23)c1` [Example 1-12], the melting point fell in the range of 234 to 236 °C.

With `CCOC(=O)c1ccc(NC(=O)Nc2c(Cl)cc(Cl)c3ccc(O)cc23)cc1` [Example 1-13], the melting point lay in the range of 258 to 260 °C.

Compound `O=C(Nc1ccc2ccccc2c1)Nc1c(Cl)cc(Cl)c2ccc(O)cc12` [Example 1-14] had a melting point of 263 to 265 °C.

In turn, `COc1ccccc1NC(=O)Nc1c(Br)cc(Br)c2ccc(O)cc12` [Example 1-15] registered a melting point of 228 to 230 °C.

`COc1cccc(NC(=O)Nc2c(Br)cc(Br)c3ccc(O)cc23)c1` [Example 1-16] displayed a melting point of 213 to 216 °C.

`CCOC(=O)c1cccc(NC(=O)Nc2c(Br)cc(Br)c3ccc(O)cc23)c1` [Example 1-17] gave a melting point of 193 to 196 °C.

For the compound `O=C(Nc1ccc(Cl)cc1)Nc1c(Cl)cc(Cl)c2ccc(O)cc12` [Example 1-21], the melting point lay in the range of 253 to 255 °C.

For `O=C(Nc1ccc(C(F)(F)F)cc1)Nc1c(Cl)cc(Cl)c2ccc(O)cc12` [Example 1-23], the melting point was in the range of 268 to 271 °C.

`O=C(Nc1ccc(F)cc1)Nc1c(Br)cc(Br)c2ccc(O)cc12` [Example 1-25] showed a melting point of 222 to 225 °C.

Consider `O=C(Nc1ccc(Cl)cc1)Nc1c(Br)cc(Br)c2ccc(O)cc12` [Example 1-26], for which the melting point was in the range of 229 to 233 °C.

In the case of `O=C(Nc1cccc(C(F)(F)F)c1)Nc1c(Br)cc(Br)c2ccc(O)cc12` [Example 1-27], the melting point is 233 to 236 °C.

Consider `O=C(NCc1cccc(F)c1)Nc1c(Cl)cc(Cl)c2ccc(O)cc12` [Example 1-30], for which the melting point lay within 225 to 228 °C.

Compound `COc1ccc(CNC(=O)Nc2c(Cl)cc(Cl)c3ccc(O)cc23)cc1` [Example 1-31] registered a melting point of 223 to 226 °C.

Consider `CN(C)c1ccc(NC(=O)Nc2c(Cl)cc(Cl)c3ccc(O)cc23)cc1` [Example 1-32], for which the melting point is 192 °C (dec.).

`O=C(NCc1cccc(F)c1)Nc1c(Br)cc(Br)c2ccc(O)cc12` [Example 1-33] had a melting point of 215 to 218 °C.

Consider `O=C(Nc1ccc(Cl)c(C(F)(F)F)c1)Nc1cccc2ccc(O)c(F)c12` [Example 1-34], for which the melting point stood at 228 °C.

Turning to `CCN(CC)c1ccc(NC(=O)Nc2c(Cl)ccc3ccc(O)cc23)cc1` [Example 1-35], the melting point was in the range of 199.8 to 200.5 °C.

`O=C(Nc1cccc(Cl)c1Cl)Nc1c(Cl)cc(Cl)c2ccc(O)cc12` [Example 1-39]: the melting point was found to be 300 °C.

As to `O=C(Nc1cccc(F)c1)Nc1c(Cl)cc(Cl)c2ccc(O)cc12` [Example 1-40], the melting point was more than 300 °C.

Take `O=C(Nc1cc(C(F)(F)F)ccc1Cl)Nc1c(Cl)cc(Cl)c2ccc(O)cc12` [Example 1-41]: the melting point was more than 300 °C.

For `O=C(Nc1ccc2ccccc2c1)Nc1cccc2ccc(O)c(F)c12` [Example 1-53], the melting point was 189 °C.

Compound `O=C(NCc1ccc(Br)cc1)Nc1cccc2ccc(O)cc12` [Example 1-71] returned a melting point of 210 °C.

Compound `O=C(Nc1ccc(Cl)c(C(F)(F)F)c1)Nc1ccc(Br)c2ccc(O)cc12` [Example 1-72] showed a melting point of 211 °C.

`O=C(Nc1ccc(F)c(C(F)(F)F)c1)Nc1ccc(Br)c2ccc(O)cc12` [Example 1-73] gave a melting point of 215 °C.

The compound `CNc1ccc2cccc(NC(=O)Nc3ccc(Cl)c(C(F)(F)F)c3)c2c1` [Example 1-74] registered a melting point of 218 to 219 °C.

The compound `O=C(Nc1ccc(Cl)c(C(F)(F)F)c1)Nc1cccc2ccc(NCc3ccccc3)cc12` [Example 1-75] had a melting point of 193 to 194 °C.

Compound `Nc1ccc2cccc(NC(=O)Nc3ccc(Cl)c(C(F)(F)F)c3)c2c1` [Example 1-76, N-(7-amino-naphthalen-1-yl)-N′-(4-chloro-3-trifluoromethyl-phenyl)urea] registered a melting point of 232 to 234 °C.

In the case of `CNc1ccc2ccc(Cl)c(NC(=O)Nc3ccc(Cl)c(C(F)(F)F)c3)c2c1` [Example 1-77], the melting point is 258 to 259 °C.

`CN(C(=O)NCc1ccc(Br)cc1)c1cccc2ccc(O)cc12` [Example 1-78] returned a melting point of 194 °C.

In the case of `CN(C(=O)Nc1ccc2ccccc2c1)c1cccc2ccc(O)cc12` [Example 1-79], the melting point was 215 °C.

Take `Cc1ccc(NC(=O)Nc2ccc(Cl)c(C(F)(F)F)c2)c2cc(O)ccc12` [Example 1-80]: the melting point was 237 to 238 °C.

Turning to `O=C(Nc1ccc(Cl)c(C(F)(F)F)c1)Nc1c(Cl)cc(CO)c2ccc(O)cc12` [Example 1-82], the melting point worked out at 210 °C.

The compound `Cc1cc(Cl)c(NC(=O)Nc2ccc(Cl)c(C(F)(F)F)c2)c2cc(O)ccc12` [Example 1-83] returned a melting point of 254 °C.

As to `CC(C)c1ccc(NC(=O)Nc2cccc3cc(O)ccc23)cc1` [Example 1-139], the melting point came to 207.5 °C.

`C=CCOc1ccc2cccc(NC(=O)Nc3ccc(Cl)c(C(F)(F)F)c3)c2c1` [Example 1-164] returned a melting point of 183 to 184 °C.

Compound `O=C(Nc1ccc(Cl)c(C(F)(F)F)c1)Nc1cccc2ccc(OC(=O)c3ccccc3)cc12` [Example 1-165] had a melting point of 220 to 222 °C.

`O=C(Nc1cccc(Cl)c1)Nc1cccc2ccc(OC(=O)c3ccccc3)cc12` [Example 1-166] registered a melting point of 214 to 215 °C.

The compound `CC(=O)Oc1ccc2c(Cl)cc(Cl)c(NC(=O)Nc3cccc(-c4ccccc4Cl)c3)c2c1` [Example 3-1, 5,7-Dichloro-8-({[(2′-chloro-1,1′-biphenyl-3-yl)amino]carbonyl}amino)-2-naphthyl acetate] gave a melting point of 180 °C.

Take `CC(=O)Oc1ccc2c(Br)cc(Br)c(NC(=O)Nc3cccc(-c4ccccc4)c3)c2c1` [Example 3-2]: the melting point is 235 °C (dec.).

The compound `CC(=O)Oc1ccc2c(Cl)cc(Cl)c(NC(=O)Nc3cccc(-c4ccc(C)c(Cl)c4)c3)c2c1` [Example 3-4] came in with a melting point of 260 °C.

`CC(=O)Oc1ccc2c(Cl)cc(Cl)c(NC(=O)Nc3cccc(-c4ccc(Cl)c(F)c4)c3)c2c1` [Example 3-5] gave a melting point of 287 °C.

For `CC(=O)Oc1ccc2c(Cl)cc(Cl)c(NC(=O)Nc3ccc4c(c3)C(=O)c3ccccc3-4)c2c1` [Example 3-10], the melting point was 213 °C (dec.).

`CC(=O)Oc1ccc2c(Cl)cc(Cl)c(NC(=O)Nc3ccc(N4CCOCC4)c(Cl)c3)c2c1` [Example 3-13] came in with a melting point of 206 °C.

Turning to `CC(=O)Oc1ccc2c(Cl)cc(Cl)c(NC(=O)Nc3ccc(F)c(F)c3)c2c1` [Example 3-14], the melting point is 226 °C (dec.).

Regarding `CC(=O)Oc1ccc2c(Cl)cc(Cl)c(NC(=O)Nc3cnc4ccccc4c3)c2c1` [Example 3-16], the melting point is 205 °C (dec.).

In turn, `CCCc1ccc(NC(=O)Nc2c(Cl)cc(Cl)c3ccc(O)cc23)cc1` [Example 4-1, N-(2,4-Dichloro-7-hydroxy-1-naphthyl)-N′-(4-propylphenyl)urea] registered a melting point of 241 °C.

`O=C(Nc1cccc(-c2ccccc2Cl)c1)Nc1c(Cl)cc(Cl)c2ccc(O)cc12` [Example 4-3] showed a melting point of 228 to 232 °C.

`O=C(Nc1ccc(Oc2ccc(Cl)cc2)cc1)Nc1c(Cl)cc(Cl)c2ccc(O)cc12` [Example 4-9] registered a melting point of 230 °C.

Turning to `CC(=O)c1ccc(-c2cccc(NC(=O)Nc3c(Cl)cc(Cl)c4ccc(O)cc34)c2)cc1` [Example 4-10], the melting point worked out at 253 °C.

As for `O=C(Nc1cccc(-c2ccc(C(=O)O)cc2)c1)Nc1c(Cl)cc(Cl)c2ccc(O)cc12` [Example 4-11], the melting point was 247 °C (dec.).

Take `Cc1ccc(NC(=O)Nc2c(Cl)cc(Cl)c3ccc(O)cc23)cc1C` [Example 4-12]: the melting point is 239 °C (dec.).

One may read the melting point as the temperature of the solid-liquid transition.
